Results as given in patent US20210000740A1, “COMPOSITIONS FOR SMALL MOLECULE THERAPEUTIC AGENT COMPOUNDS” (Delpor, Inc., priority 2018, published 2021).
≈ marks a conversion by molar mass, not a printed value. Like-named read-outs stand apart in the source and are kept apart here. Blank lines part the entries; values can stand above or below the compound they belong to.

How the values were obtained:
[1] = In vitro pH of compositions prepared with organic acids (Table 1); format: physicochemical; settings: composition prepared with the organic acid
Description: Compositions were prepared with the following organic acids listed in Table 1, and pH values were measured.

[2] = cited from earlier work; for Water Solubility: intrinsic water solubility of the acid used in Example 5
[3] = cited from earlier work
[4] = pH of a saturated aqueous solution of the acid; format: physicochemical; settings: excluding the drug
Description: The rates of in vitro release of the risperidone salts listed in Example 5 are also related in part to the pH of a saturated aqueous solution of the acid. The pH at saturating concentrations of the acids used in Example 5 and their respective risperidone release rates (expressed as the cumulative percent total risperidone released following 15 days incubation at 37° C.) are shown in FIG. 7.

[5] = cited from earlier work; remark: listed apart in the source
[6] = in vitro, after 28 days, PBS 37° C.

Structure (SMILES): O=C(O)C(O)c1ccccc1 (racemic) [rac-Mandelic]
In vitro pH [1]: 2.42
Solubility ([2]; organic acid, Table 1): 158.7 g/L (≈ 1040 mM)
pKa ([3]; organic acid, Table 1): 3.85

Structure (SMILES): CCN(C)C(=O)Oc1cccc([C@H](C)N(C)C)c1 [Rivastigmine]
water solubility (in words) [5]: poorly water soluble

Structure (SMILES): Cc1cc2c(s1)Nc1ccccc1N=C2N1CCN(C)CC1 [olanzapine, reference compound]
water solubility (in words) [5]: poorly water soluble
pKa1 ([3]; reported value, doubly protonated olanzapine): 5.0

Structure (SMILES): Cc1nc2n(c(=O)c1CCN1CCC(c3noc4cc(F)ccc34)CC1)CCCC2 [risperidone]
insolubility in water as a neutral free base ([5]; 20-25° C.): > 10000 volumes of water per volume of drug

Structure (SMILES): CN(C)CCC[C@@]1(c2ccc(F)cc2)OCc2cc(C#N)ccc21 [Escitalopram]
water solubility (in words) [5]: practically insoluble in water

Structure (SMILES): O=C(O)c1cccnc1 [Nicotinic, nicotinic acid]
In vitro pH [1]: 3.68

Structure (SMILES): O=C1CC2(CCCC2)CC(=O)N1CCCCN1CCN(c2ncccn2)CC1 [Buspirone]
room temperature water solubility ([5]; room temperature): about 21 mg/L

Structure (SMILES): CCCc1nc(C)c2c(=O)[nH]c(-c3cc(S(=O)(=O)N4CCN(CC)CC4)ccc3OCC)nn12 [vardenafil]
water solubility (in words) [5]: limited water solubility

Structure (SMILES): CCCN(CCc1cccs1)[C@H]1CCc2c(O)cccc2C1 [Rotigotine]
water solubility (in words) [5]: practically insoluble in water

Structure (SMILES): Clc1ccc2nsnc2c1NC1=NCCN1 [tizanidine free base, tizanidine]
percent of the drug released [6]: approximately 10%

Structure (SMILES): O=C(O)CCCCCCCCC(=O)O [Sebacic, sebacic acid]
pKa ([3]; organic acid, Table 1): 4.72

Structure (SMILES): O=c1[nH]c(=O)c2[nH]c(=O)[nH]c2[nH]1 [Uric acid]
Water Solubility [2]: 0.06 mg/mL

Structure (SMILES): Cc1nccn1CC1CCc2c(c3ccccc3n2C)C1=O (stereo not drawn) [ondansetron]
water solubility (in words) [5]: limited water solubility

Structure (SMILES): O=C(O)CNC(=O)c1ccccc1 [Hippuric acid]
pH at a saturating concentration [4]: 2.6

Further lines, with some results ahead:

In vitro pH [1]: 4.35
Structure (SMILES): O=C(O)/C=C/c1ccccc1 [trans-Cinnamic, trans-cinnamic acid]

pH at a saturating concentration [4]: 3.0
Structure (SMILES): O=C(O)CCc1ccc(O)cc1 [Hydroxyphenylpropionic acid, 3-(4-hydroxyphenyl)propionic acid]
Water Solubility [2]: 2.76 mg/mL

In vitro pH [1]: 3.95
Structure (SMILES): O=C(O)/C=C/c1cccc(O)c1 [m-Coumaric, m-coumaric acid]
Solubility [2]: 1.04 g/L (≈ 6.34 mM)
pKa [3]: 4.01

In vitro pH [1]: 4.36
Structure (SMILES): O=C(O)/C=C/c1ccc(O)cc1 [p-Coumaric, p-coumaric acid]
Solubility ([2]; organic acid, Table 1): 1 to 10 g/L

In vitro pH [1]: 6.13
Structure (SMILES): Cc1ccc(C=CC(=O)O)cc1 [4-Methylcinnamic]

In vitro pH [1]: 5.37
Structure (SMILES): COc1ccc(C=CC(=O)O)cc1 [p-Methoxycinnamic, p-methoxycinnamic acid]
Solubility ([2]; organic acid, Table 1): 0.712 g/L (≈ 4 mM)
pKa ([3]; organic acid, Table 1): 4.04

In vitro pH [1]: 4.49
Structure (SMILES): COc1cccc(C=CC(=O)O)c1 [m-Methoxycinnamic, m-methoxycinnamic acid]
Solubility ([2]; organic acid, Table 1): 4.46 g/L (≈ 25 mM)
pKa ([3]; organic acid, Table 1): 4.47

In vitro pH [1]: 6.34
Structure (SMILES): O=C(O)C=Cc1ccc(Cl)cc1 [4-Chlorocinnamic]
pKa ([3]; organic acid, Table 1): 4.41

In vitro pH [1]: 5.05
Structure (SMILES): COc1ccc(C(=O)O)cc1 [p-Anisic, p-anisic acid]
Solubility ([2]; organic acid, Table 1): 0.4 g/L (≈ 2.63 mM)
pKa ([3]; organic acid, Table 1): 4.34

In vitro pH [1]: 4.21
Structure (SMILES): Nc1ccc(C(=O)O)cc1 [PABA, p-aminobenzoic acid]
pKa ([3]; organic acid, Table 1): 4.65
